Our source for the EC50 values is patent US9675593B2, “Anti-fibrotic pyridinones” (InterMune, Inc., priority 2012, dated 2017).

The test concerns TGF-b induced Endothelin-1 (ET-1) production. Put plainly: ET-1 assay: inhibitory effect on TGF-b induced endothelin-1 production. The format is cell-based. The note with it: Homo sapiens, Fibroblast; fibroblasts, stimulant (TGFb, serum, LPA etc), ET-1 by ELISA. As for the experimental part:
Assay of Inhibitory Effect on TGF-b induced Endothelin-1 Production
Fibroblasts (primary human lung and dermal, HFL-1, 3T3 etc) are seeded in 96-well plates at ˜15000 cells/well and serum starved for 0-48 hours. After media exchange, compounds serially diluted in DMSO are added to the cells. After a brief incubation of ˜30 min, stimulants (TGFb, serum, LPA etc) are added followed by further incubation for 16-48 hours. Media is then harvested and stored frozen in plate format for later endothelin-1 (ET-1) determination by ELISA. Toxicity measurements are made using the ATPlite kit (Perkin-Elmer). ET-1 is quantified using an ELISA kit (R&D Systems). The amount of ET-1 produced in the assay wells are back-calculated using the ELISA standard. The ability of a compound to inhibit ET-1 production is typically analyzed by fitting dose-response curves to a 4-parameter logistic function to obtain an EC50 value. A measure of cytotoxicity (CC50) is likewise reported from the same experiment using the ATPlite data.
Molecule `O=c1ccc(-c2ccnnc2)cn1-c1ccc(OC(F)(F)F)cc1` [Compound 347] showed a concentration for a half-maximal effect (EC50) of 50 to 200 µM.

As for `O=C(Nc1cc(=O)n(-c2ccc(OC(F)(F)F)cc2)cc1-c1ccc(F)cc1)Oc1ccccc1` [Compound 113], the EC50 is > 200 µM.

`Cc1cc(-c2cnn(C)c2)cn(-c2ccc(OC(F)(F)F)cc2)c1=O` [Compound 352] yielded an EC50 of 50 to 200 µM.
